The source of these data is patent publication US11319299B2, “Substituted carboxamides as inhibitors of WDR5 protein-protein binding” (PROPELLON THERAPEUTICS INC., priority 2016, dated 2022).

The Kd is the concentration at which binding is half-saturated.

The first experiment deals with WDR5 (Homo sapiens (Human), UniProt P61964). Put plainly: Surface Plasmon Resonance (SPR) assay, KD and residence time. The format is binding. As to conditions: surface plasmon resonance (SPR) assay; read-out: WDR5 binding affinity (KD).
As for `C[C@@H]1CN(c2cc(F)c(-c3ccc(N4CCOCC4)c(F)c3)cc2NC(=O)c2c[nH]c(=O)cc2C(F)(F)F)C[C@@H](C)N1C` (stereo in doubt) [Example 357, N-[4-fluoro-5-(3-fluoro-4-morpholin-4-ylphenyl)-2-[(3R,5R)-3,4,5-trimethylpiperazin-1-yl]phenyl]-6-oxo-4-(trifluoromethyl)-1H-pyridine-3-carboxamide], the Kd was found to be 133 nM.
For `C[C@@H]1CN(c2cc(F)c(-c3cccc(C#N)c3)cc2NC(=O)c2c[nH]c(=O)cc2C(F)(F)F)C[C@H](C)N1C` [Example 102, N-[5-(3-cyanophenyl)-4-fluoro-2-[(3R,5S)-3,4,5-trimethylpiperazin-1-yl]phenyl]-6-oxo-4-(trifluoromethyl)-1H-pyridine-3-carboxamide], the Kd came out at 2.08 nM.
Still for that read-out and setting: the same measure for `CC1CN(c2cc(F)c(-c3cnc(N4CCOCC4)nc3)cc2NC(=O)c2cc(Cl)cc(Cl)c2)CCN1C` (stereo in doubt) [Example 200, 3,5-dichloro-N-[4-fluoro-5-(2-morpholin-4-ylpyrimidin-5-yl)-2-[(3R)-3,4-dimethylpiperazin-1-yl]phenyl]benzamide]: 9.7 nM; for `CC1CN(c2cc(F)c(-c3ccc(N4CCOCC4)cc3)cc2NC(=O)c2nn(C)c3ccccc23)CCN1C` (stereo in doubt) [Example 117, N-[4-fluoro-5-(4-morpholin-4-ylphenyl)-2-[(3R)-3,4-dimethylpiperazin-1-yl]phenyl]-1-methylindazole-3-carboxamide]: 42.8 nM.
Regarding `C[C@@H]1CN(c2cc(F)c(-c3cnc(N4CCOCC4)nc3)cc2NC(=O)c2cccc(N(C)C)c2)C[C@H](C)N1C` [Example 126, 3-(dimethylamino)-N-[4-fluoro-5-(2-morpholin-4-ylpyrimidin-5-yl)-2-[(3R,5S)-3,4,5-trimethylpiperazin-1-yl]phenyl]benzamide], the Kd was 3500 nM.
Regarding `C[C@@H]1CN(c2cc(C(F)(F)F)c(-c3cnc(N4CCOCC4)nc3)cc2NC(=O)c2c[nH]c(=O)cc2C(F)(F)F)C[C@H](C)N1C` [Example 59, N-[5-(2-morpholin-4-ylpyrimidin-5-yl)-2-[rac-(3R,5S)-3,4,5-trimethylpiperazin-1-yl]-4-(trifluoromethyl)phenyl]-6-oxo-4-(trifluoromethyl)-1H-pyridine-3-carboxamide], the Kd was above 200 nM.
Still for that read-out and setting: in the case of `COCCOc1ccc(-c2cc(NC(=O)c3cn(C)c(=O)cc3C(F)(F)F)c(N3C[C@@H](C)N(C)[C@@H](C)C3)cc2F)cn1` [Example 209, N-(4-fluoro-5-(6-(2-methoxyethoxy)pyridin-3-yl)-2-((3S,5R)-3,4,5-trimethylpiperazin-1-yl)phenyl)-1-methyl-6-oxo-4-(trifluoromethyl)-1,6-dihydropyridine-3-carboxamide] it was 9.53 nM; in that of `C[C@@H]1CN(c2cc(F)c(N3CCN(Cc4ccc(F)cc4)CC3)cc2NC(=O)c2c[nH]c(=O)cc2C(F)(F)F)C[C@H](C)N1C` [Example 392, N-[4-fluoro-5-[4-[(4-fluorophenyl)methyl]piperazin-1-yl]-2-[(3R,5S)-3,4,5-trimethylpiperazin-1-yl]phenyl]-6-oxo-4-(trifluoromethyl)-1H-pyridine-3-carboxamide], 8.08 nM; in that of `C[C@@H]1CN(c2cc(F)c(-c3cnc(N(C)[C@@H]4CCOC4)nc3)cc2NC(=O)c2c[nH]c(=O)cc2C(F)(F)F)CCN1C` (stereo in doubt) [Example 362, N-[4-fluoro-5-[2-[methyl-[(3R)-oxolan-3-yl]amino]pyrimidin-5-yl]-2-[(3R)-3,4-dimethylpiperazin-1-yl]phenyl]-6-oxo-4-(trifluoromethyl)-1H-pyridine-3-carboxamide], 0.244 nM.
Same read-out and setting: in the case of `COc1ccc(C(=O)Nc2cc(-c3cnc(N4CCOCC4)nc3)c(F)cc2N2C[C@@H](C)N(C)[C@@H](C)C2)cc1` [Example 106, N-[4-fluoro-5-(2-morpholin-4-ylpyrimidin-5-yl)-2-[(3R,5S)-3,4,5-trimethylpiperazin-1-yl]phenyl]-4-methoxybenzamide] it was 5400 nM; in that of `C[C@@H]1CN(c2cc(F)c(-c3cccnc3OC3CCCCC3)cc2NC(=O)c2c[nH]c(=O)cc2C(F)(F)F)C[C@H](C)N1C` [Example 207, N-[5-(2-cyclohexyloxypyridin-3-yl)-4-fluoro-2-[(3R,5S)-3,4,5-trimethylpiperazin-1-yl]phenyl]-6-oxo-4-(trifluoromethyl)-1H-pyridine-3-carboxamide], 6.69 nM; in that of `Cc1cnc(N2CCC=C(c3cc(NC(=O)c4c[nH]c(=O)cc4C(F)(F)F)c(N4C[C@@H](C)N(C)[C@@H](C)C4)cc3F)C2)nc1` [Example 376, N-[4-fluoro-5-[1-(5-methylpyrimidin-2-yl)-3,6-dihydro-2H-pyridin-5-yl]-2-[(3R,5S)-3,4,5-trimethylpiperazin-1-yl]phenyl]-6-oxo-4-(trifluoromethyl)-1H-pyridine-3-carboxamide], 0.673 nM.
As to `CCN(C)[C@@H]1CCN(c2cc(F)c(-c3cnc(N4CCOCC4)nc3)cc2NC(=O)c2c[nH]c(=O)cc2C(F)(F)F)C1` [Example 345, N-[4-fluoro-5-(2-morpholin-4-ylpyrimidin-5-yl)-2-[(3R)-3-[ethyl(methyl)amino]pyrrolidin-1-yl]phenyl]-6-oxo-4-(trifluoromethyl)-1H-pyridine-3-carboxamide], the Kd worked out at 1.2 nM.

The experiment is the same for the next values; noted with them: surface plasmon resonance (SPR); read-out: WDR5 binding affinity (KD).
For “N-[5-[1-(5-cyano-1,3-thiazol-2-yl)-3,6-dihydro-2H-pyridin-4-yl]-4-fluoro-2-[(3R)-3,4-dimethylpiperazin-1-yl]phenyl]-4-fluoro-2-(trifluoromethyl)benzamide [Example 690]”, the Kd is 4.17 nM.
For `C[C@@H]1CN(c2cc(F)c(-c3ncc(C(=O)NC4CCCCC4)s3)cc2NC(=O)c2c[nH]c(=O)cc2C(F)(F)F)C[C@H](C)N1C` [Example 498, N-cyclohexyl-2-[2-fluoro-5-[[6-oxo-4-(trifluoromethyl)-1H-pyridine-3-carbonyl]amino]-4-[(3R,5S)-3,4,5-trimethylpiperazin-1-yl]phenyl]-1,3-thiazole-5-carboxamide], the dissociation constant (Kd) was 1.47 nM.
`C[C@@H]1CN(c2cc(F)c(C3=CCN(c4ncc(C#N)s4)CC3)cc2NC(=O)c2c[nH]c(=O)cc2C(F)(F)F)C[C@H](C)N1C` [Example 696, N-[5-[1-(5-cyano-1,3-thiazol-2-yl)-3,6-dihydro-2H-pyridin-4-yl]-4-fluoro-2-[(3R,5S)-3,4,5-trimethylpiperazin-1-yl]phenyl]-6-oxo-4-(trifluoromethyl)-1H-pyridine-3-carboxamide]: the Kd came to 1.31 nM.
Consider `C[C@@H]1CN(c2cc(F)c(C3=CCCN(C(=O)OC4CC(F)(F)C4)CC3)cc2NC(=O)c2c[nH]c(=O)cc2C(F)F)C[C@H](C)N1C` [Example 730, (3,3-difluorocyclobutyl) 4-[5-[[4-(difluoromethyl)-6-oxo-1H-pyridine-3-carbonyl]amino]-2-fluoro-4-[(3R,5S)-3,4,5-trimethylpiperazin-1-yl]phenyl]-2,3,6,7-tetrahydroazepine-1-carboxylate], for which the Kd is 7.99 nM.
As to `C[C@@H]1CN(c2cc(F)c(C3=CCCN(C(=O)OC4(C)COC4)C3)cc2NC(=O)c2c[nH]c(=O)cc2C(F)(F)F)C[C@H](C)N1C` [Example 489, (3-methyloxetan-3-yl) 5-[2-fluoro-5-[[6-oxo-4-(trifluoromethyl)-1H-pyridine-3-carbonyl]amino]-4-[(3R,5S)-3,4,5-trimethylpiperazin-1-yl]phenyl]-3,6-dihydro-2H-pyridine-1-carboxylate], the Kd came to 2.74 nM.
For `C[C@@H]1CN(c2cc(F)c(-c3cnc(N4CCN(C5CC5)CC4)nc3)cc2NC(=O)c2ccc(F)cc2C(F)(F)F)C[C@H](C)N1C` [Example 454, N-[5-[2-(4-cyclopropylpiperazin-1-yl)pyrimidin-5-yl]-4-fluoro-2-[(3R,5S)-3,4,5-trimethylpiperazin-1-yl]phenyl]-4-fluoro-2-(trifluoromethyl)benzamide], the Kd was found to be 4.05 nM.
Same read-out and setting: the same measure for `C[C@@H]1CN(c2cc(F)c(-c3nc(CN4CCOCC4)cs3)cc2NC(=O)c2c[nH]c(=O)cc2C(F)(F)F)C[C@H](C)N1C` [Example 750, N-[4-fluoro-5-[4-(morpholin-4-ylmethyl)-1,3-thiazol-2-yl]-2-[(3R,5S)-3,4,5-trimethylpiperazin-1-yl]phenyl]-6-oxo-4-(trifluoromethyl)-1H-pyridine-3-carboxamide]: 1.71 nM; for `C[C@@H]1CN(c2cc(F)c(-c3ccn(C)c(=O)c3)cc2NC(=O)c2c[nH]c(=O)cc2C(F)(F)F)C[C@H](C)N1C` [Example 567, N-[4-fluoro-5-(1-methyl-2-oxopyridin-4-yl)-2-[(3R,5S)-3,4,5-trimethylpiperazin-1-yl]phenyl]-6-oxo-4-(trifluoromethyl)-1H-pyridine-3-carboxamide]: 1.18 nM.
Take `C[C@@H]1CN(c2cc(F)c(C3=CCN(C(=O)OC4CC(F)(F)C4)CC3)cc2NC(=O)c2c[nH]c(=O)cc2C(F)F)C[C@H](C)N1C` [Example 702, (3,3-difluorocyclobutyl) 4-[5-[[4-(difluoromethyl)-6-oxo-1H-pyridine-3-carbonyl]amino]-2-fluoro-4-[(3R,5S)-3,4,5-trimethylpiperazin-1-yl]phenyl]-3,6-dihydro-2H-pyridine-1-carboxylate]: the Kd was determined as 3.47 nM.
`C[C@@H]1CN(c2cc(F)c(C3=CCCN(C(=O)OC4(C)CCC4)CC3)cc2NC(=O)c2c[nH]c(=O)cc2C(F)(F)F)C[C@H](C)N1C` [Example 699, (1-methylcyclobutyl) 4-[2-fluoro-5-[[6-oxo-4-(trifluoromethyl)-1H-pyridine-3-carbonyl]amino]-4-[(3R,5S)-3,4,5-trimethylpiperazin-1-yl]phenyl]-2,3,6,7-tetrahydroazepine-1-carboxylate]: the Kd came to 3.7 nM.
For `C[C@@H]1CN(c2cc(F)c(C3=CCN(c4ncc(C=O)cn4)C3)cc2NC(=O)c2c[nH]c(=O)cc2C(F)(F)F)C[C@H](C)N1C` [Example 444, N-[4-fluoro-5-[1-(5-formylpyrimidin-2-yl)-2,5-dihydropyrrol-3-yl]-2-[(3R,5S)-3,4,5-trimethylpiperazin-1-yl]phenyl]-6-oxo-4-(trifluoromethyl)-1H-pyridine-3-carboxamide], the Kd was 2.96 nM.
